Patent US20200270309A1, “MALEIMIDE GROUP-MODIFIED ANGIOGENESIS INHIBITOR HM-1 AND USE THEREOF” (NANJING ANJI BIOLOGICAL TECHNOLOGY CO., LTD, priority 2017, published 2020)
Marks after values point to notes of the source that are not given here. Peptide text beside a SMILES is read from it. * marks the point of attachment. X58 = O=C1C=CC(=O)N1c1cccc(CCCCCCCCCCCC(=O)*)c1; X60 = O=C1C=CC(=O)N1c1ccccc1CCCCCCCCCC(=O)*; X46 = O=C1C=CC(=O)N1c1cccc(CCCCC(=O)*)c1

How the values were obtained:
[1] = Half-lives and pharmacokinetic parameters of polypeptides vs HM-1; settings: in vivo; for half-life: T1/2β (half-life)
[2] = tested on: splenic lymphocytes; experiment: Proliferation of splenic lymphocytes in mice (ConA, MTT); assay type: cell-based; settings: ConA-stimulated mouse splenic lymphocytes, 48 h
Protocol: Spleens of mice were taken out under aseptic conditions, washed with blank 1640 culture medium 3 times, ground with a 5 mL syringe core, filtered with a 200-mesh sieve, made into a single cell suspension. The suspension was centrifuged (1000 rpm×5 min), and supernatant was removed. Red blood cells were lysed by Tris-NH4Cl, and placed in ice water bath for 4 min and centrifuged (1000 rpm×5 min). The supernatant was removed, and the cells were washed twice with sterile PBS. Finally, RPMI 1640 culture solution (5 mL) containing 10% calf serum was added to suspend the cells. The cells were counted and the cell concentration was adjusted to 5×10^6 cells/mL, and the cells were cultured in a 96-well culture plate.
Blank control group, concanavalin A (ConA) group and dexamethasone (Dex) group were set in the experiment, and polypeptide X1-X90 groups were set as test groups. After 100 μL of splenic lymphocytes suspension per well was added into each group, 100 μL of blank 1640 culture solution was added into the blank control group, ConA was added into the ConA group, Dex was added into the Dex group, and ConA was added into the test groups on the basis of adding different concentrations of polypeptides X1-X90. The cells were static cultured at 37° C. in a cell incubator for 48 h. After the cultivation was completed, 20 μL of MTT was added to each well, and the cultivation was continued for 4 h. Finally, all the solutions in each well were discarded. 100 μL DMSO was added to each well and shaken, and the OD value at 570 nm was detected with a microplate reader. Five parallel experiments were set in each well.

[3] = tested on: adjuvant arthritis; experiment: Rat adjuvant arthritis (AA) animal model; assay type: in vivo, SD rats; settings: 4.0 mg/kg
[4] = tested on: carrageenan-induced toe swelling; experiment: Carrageenan-induced toe swelling in rats; assay type: in vivo; settings: SD rats; for Swelling degree 1 h: 1 h after carrageenan; for Swelling degree 3 h: 3 h after carrageenan; for Swelling degree 5 h: 5 h after carrageenan; for Swelling degree 7 h: 7 h after carrageenan
Protocol: The rats were injected once a day, and the model group was given the same volume of normal saline for 3 d and fed normally. […] The foot swelling degree was calculated according to the following formula: foot swelling degree (mL)=foot volume after inflammation-foot volume before inflammation. The number of milliliters of overflow liquid was recorded (method: a ballpoint pen is used to circle the protruding point of the right joint as a measurement mark, and the right hind feet of each rat are sequentially placed into the volume measurer, so that the hind limbs are exposed outside the barrel, and the immersion depth is at the coincidence of the circle and the liquid level. After the foot enters the liquid, the liquid level rises, and the volume of overflow liquid is the volume of the right hind foot of the rat, and the normal volume of the right hind foot of each rat is measured in sequence).

[5] = tested on: human retinal capillary endothelial cells (HRCECs); experiment: MTT proliferation inhibition on HRCECs; assay type: cell-based; settings: 48 h; for A570 nm-A630 nm: mean±SD
Protocol: An MTT method was used to detect the inhibitory activity of the angiogenesis inhibitor polypeptide on proliferation of HRCECs. HRCECs were digested and collected with trypsin after being cultured in an incubator at 37° C. with 5% CO2 to a density of 90% or more. The cells were resuspended with a culture solution and counted under a microscope, the cell concentration was adjusted to 3.0×10^4 cells/mL, and the cell suspension was inoculated into a 96-well plate at 100 μL/well, and cultured overnight in an incubator at 37° C. with 5% CO2. After the cells were completely adhered to the wall, cells with the addition of the angiogenesis inhibitor polypeptide were used as administration groups, cells with the addition of Avastin were used as a positive control group, and cells with the addition of culture solution without any drugs were used as a blank control group. The cells were diluted to respective predetermined concentrations with the culture solution. The diluent were added into 96-well plates respectively at 100 μL per well, and the cells were cultured at 37° C. for 48 h in an incubator with 5% CO2. 20 μL of 5 mg/mL MTT was added into each well of the 96-well plate, and the cultivation was continued for 4 h. The culture medium was removed, and 100 μL of DMSO was added to each well for dissolution. The absorbance was measured at a detection wavelength of 570 nm and a reference wavelength of 630 nm using a microplate reader, and the PIR was calculated by the formula as follows:
PIR (%)=1−administration group/negative group
The experiment was repeated independently three times. The results were expressed as mean±SD, and statistical T test was conducted. *P<0.05 indicates significant difference, and **P<0.01 indicates extremely significant difference.

[6] = tested on: choroidal neovascularization; experiment: Choroidal neovascularization in rats (laser photocoagulation, FFA); assay type: in vivo; settings: BN rats
Protocol: 6-8 weeks male BN rats were fully anesthetized by intraperitoneal injection of 846 compound anesthetic with a concentration of 0.5 mL/kg. Compound tropicamide eye drops were used once 5 min before laser photocoagulation to fully dilate the pupils of both eyes. The animals were fixed and subjected to krypton laser photocoagulation equidistantly around an optic disc with the aid of a −53.00D corneal contact lens at a distance of 2PD from the optic disc. A total of 8 photocoagulation spots were obtained. The laser wavelength was 647.1 nm, the power was 350 mW, and the diameter and time of the photocoagulation spots were 50 μm and 0.05 s respectively. Fundus photography was performed immediately after photocoagulation. FFA, histopathology and transmission electron microscopy were performed on the days 3, 7, 14, 21 and 28 after photocoagulation respectively.
Through fundus photography and FFA examination, it was confirmed that the fluorescein leakage of the photocoagulation spot reached its peak on day 21 after photocoagulation. At the same time, histopathological examination was carried out.
Rats with successful modeling were randomly grouped, with 5 rats in each group. The groups were marked as a negative control group and X1-X90 treatment groups respectively. The rats were injected with normal saline and X1-X90 (the doses of X1-X90 were each 0.05 μM) in the vitreous chamber once a day for 1 week. FFA examination was carried out 3 days, 7 days, 14 days and 28 days after administration.

[7] = intravenous in the tail once every five days from day 10, mean±SD
[8] = day 3 after administration, total light spot number was 297, 0.05 μM in the vitreous chamber once a day for 1 week
[9] = day 7 after administration, total light spot number was 186, 0.05 μM in the vitreous chamber once a day for 1 week
[10] = day 14 after administration, total light spot number was 137, 0.05 μM in the vitreous chamber once a day for 1 week
[11] = day 28 after administration, total light spot number was 69, 0.05 μM in the vitreous chamber once a day for 1 week

Row | Structure (SMILES) | AUC(0-inf) [1] [ng·h/mL] | MRT inf [1] [h] | clearance [1] [mL/min/kg] | half-life [1] [h] | A570 nm/A630 nm ([2]; polypeptide dose 0.05 μM) | Inhibition rate (%) ([2]; polypeptide dose 0.05 μM) | A570 nm/A630 nm ([2]; polypeptide dose 0.1 μM) | Inhibition rate (%) ([2]; polypeptide dose 0.1 μM) | A570 nm/A630 nm ([2]; polypeptide dose 0.2 μM) | Inhibition rate (%) ([2]; polypeptide dose 0.2 μM) | Swelling degree 1 h ([4]; 2.0 mg/kg once a day for 3 d) [mg] | Swelling degree 3 h ([4]; 2.0 mg/kg once a day for 3 d) [mg] | Swelling degree 5 h ([4]; 2.0 mg/kg once a day for 3 d) [mg] | Swelling degree 7 h ([4]; 2.0 mg/kg once a day for 3 d) [mg] | Swelling degree 1 h ([4]; 4.0 mg/kg once a day for 3 d) [mg] | Swelling degree 3 h ([4]; 4.0 mg/kg once a day for 3 d) [mg] | Swelling degree 5 h ([4]; 4.0 mg/kg once a day for 3 d) [mg] | Swelling degree 7 h ([4]; 4.0 mg/kg once a day for 3 d) [mg] | Inhibition rate (%) ([5]; dose 0.05 μM) [%*] | A570 nm-A630 nm ([5]; dose 0.05 μM) | other results
1 | C[C@H](NC(=O)CNC(=O)[C@H](CCCNC(=N)N)NC(=O)CCCCCCCCCCCc1cccc(N2C(=O)C=CC2=O)c1)C(=O)N[C@@H](CC(=O)O)C(=O)N[C@@H](CCCNC(=N)N)C(=O)N[C@@H](C)C(=O)NCC(=O)NCC(=O)NCC(=O)NCC(=O)N[C@@H](CCCNC(=N)N)C(=O)NCC(=O)N[C@@H](CC(=O)O)C(=O)O [X35] (X58-RGADRAGGGGRGD-OH) | 32000 ± 8090 | 57.1 ± 14.2 | 0.522 | 39.6 ± 0.31 | 0.6122 ± 0.1219 | 9.36 | 0.5261 ± 0.0617 | 22.11 | 0.4415 ± 0.0616 | 34.63 | 0.25 ± 0.11 | 0.38 ± 0.16 | 0.38 ± 0.19 | 0.33 ± 0.15 | 0.23 ± 0.11 | 0.36 ± 0.16 | 0.44 ± 0.14 | 0.32 ± 0.12 | 43.91 | 0.7413 ± 0.08995 | Clinical score ([3]; intravenous in the tail once every five days from day 10, four paws scored 0-4, max 16, mean±SD): 5.83 ± 1.07; Joint swelling degree [3, 7]: 0.85 ± 0.13 mm; Left and right paw swelling degree [3, 7]: 3.78 ± 0.56 mm; Inhibition rate (%) ([5]; dose 0.1 μM): 56.72%**; A570 nm-A630 nm ([5]; dose 0.1 μM): 0.5720 ± 0.01284; Inhibition rate (%) ([5]; dose 0.2 μM): 57.45%*; A570 nm-A630 nm ([5]; dose 0.2 μM): 0.5624 ± 0.01279; CNV Incidence (%) [6, 8]: 52.19%; Leakage Light spot number [6, 8]: 155; CNV Incidence (%) [6, 9]: 47.85%; Leakage Light spot number [6, 9]: 89; CNV Incidence (%) [6, 10]: 46.72%; Leakage Light spot number [6, 10]: 64; CNV Incidence (%) [6, 11]: 44.93%; Leakage Light spot number [6, 11]: 31
2 | C[C@H](NC(=O)CNC(=O)[C@H](CCCNC(=N)N)NC(=O)CCCCCCCCCc1ccccc1N1C(=O)C=CC1=O)C(=O)N[C@@H](CC(=O)O)C(=O)N[C@@H](CCCNC(=N)N)C(=O)N[C@@H](C)C(=O)NCC(=O)NCC(=O)NCC(=O)NCC(=O)N[C@@H](CCCNC(=N)N)C(=O)NCC(=O)N[C@@H](CC(=O)O)C(=O)O [X21] (X60-RGADRAGGGGRGD-OH) | 34000 ± 8190 | 60.9 ± 9.41 | 0.49 | 42.24 ± 0.28 | 0.5904 ± 0.0399 | 12.59 | 0.5776 ± 0.1193 | 14.48 | 0.4947 ± 0.1055 | 26.75 | 0.23 ± 0.19 | 0.32 ± 0.17 | 0.39 ± 0.16 | 0.33 ± 0.12 | 0.25 ± 0.17 | 0.33 ± 0.13 | 0.39 ± 0.14 | 0.35 ± 0.18 | 48.85 | 0.6761 ± 0.01737 | Inhibition rate (%) ([5]; dose 0.1 μM): 67.15%**; A570 nm-A630 nm ([5]; dose 0.1 μM): 0.4342 ± 0.04189; Inhibition rate (%) ([5]; dose 0.2 μM): 69.16%*; A570 nm-A630 nm ([5]; dose 0.2 μM): 0.4076 ± 0.06848; CNV Incidence (%) [6, 8]: 50.84%; Leakage Light spot number [6, 8]: 151; CNV Incidence (%) [6, 9]: 47.85%; Leakage Light spot number [6, 9]: 89; CNV Incidence (%) [6, 10]: 46.72%; Leakage Light spot number [6, 10]: 64; CNV Incidence (%) [6, 11]: 40.58%; Leakage Light spot number [6, 11]: 28
3 | C[C@H](NC(=O)CNC(=O)[C@H](CCCNC(=N)N)NC(=O)CCCCc1cccc(N2C(=O)C=CC2=O)c1)C(=O)N[C@@H](CC(=O)O)C(=O)N[C@@H](CCCNC(=N)N)C(=O)N[C@@H](C)C(=O)NCC(=O)NCC(=O)NCC(=O)NCC(=O)N[C@@H](CCCNC(=N)N)C(=O)NCC(=O)N[C@@H](CC(=O)O)C(=O)O [X28] (X46-RGADRAGGGGRGD-OH) | 25100 ± 7920 | 45 ± 13 | 0.663 | 31.19 ± 0.26 | 0.5765 ± 0.0594 | 14.64 | 0.5541 ± 0.0486 | 17.96 | 0.5087 ± 0.0793 | 24.68 | 0.29 ± 0.13 | 0.35 ± 0.15 | 0.45 ± 0.17 | 0.36 ± 0.14 | 0.28 ± 0.15 | 0.34 ± 0.11 | 0.37 ± 0.17 | 0.35 ± 0.18 | 48.58 | 0.6796 ± 0.03488 | Inhibition rate (%) ([5]; dose 0.1 μM): 52.72%**; A570 nm-A630 nm ([5]; dose 0.1 μM): 0.6249 ± 0.09489; Inhibition rate (%) ([5]; dose 0.2 μM): 69.71%*; A570 nm-A630 nm ([5]; dose 0.2 μM): 0.4004 ± 0.02963; CNV Incidence (%) [6, 8]: 50.17%; Leakage Light spot number [6, 8]: 149; CNV Incidence (%) [6, 9]: 46.77%; Leakage Light spot number [6, 9]: 87; CNV Incidence (%) [6, 10]: 45.26%; Leakage Light spot number [6, 10]: 62; CNV Incidence (%) [6, 11]: 40.58%; Leakage Light spot number [6, 11]: 28
